From patent US9221809B2 (MERCK SHARP & DOHME CORP., priority 2011, dated 2015)
Where a name gives a salt, the structure may show the parent alone. Read-outs that look alike come from different tables or passages of the source.

Target: IRAK4 (Homo sapiens (Human), UniProt Q9NWZ3)
Assay: IRAK4 kinase activity, IMAP fluorescence polarization assay
Format: biochemical
Conditions: 100 μM ATP
How it was run: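 GST-tagged IRAK4 at 0.5 nM phosphorylates 100 nM fluorescent peptide substrate with 100 μM ATP in pH 7.2 Tris buffer containing MgCl2, DTT and Tween 20, 30 min at 25 °C. Reaction stopped with IMAP binding reagent; phosphorylation read as increased fluorescence polarization.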

[1] = 0.5 nM GST tagged IRAK4, read-out: IRAK4 IC50
[2] = unit inferred, read-out: IRAK4 IC50

Chain of IRAK4 (Q9NWZ3 whole entry): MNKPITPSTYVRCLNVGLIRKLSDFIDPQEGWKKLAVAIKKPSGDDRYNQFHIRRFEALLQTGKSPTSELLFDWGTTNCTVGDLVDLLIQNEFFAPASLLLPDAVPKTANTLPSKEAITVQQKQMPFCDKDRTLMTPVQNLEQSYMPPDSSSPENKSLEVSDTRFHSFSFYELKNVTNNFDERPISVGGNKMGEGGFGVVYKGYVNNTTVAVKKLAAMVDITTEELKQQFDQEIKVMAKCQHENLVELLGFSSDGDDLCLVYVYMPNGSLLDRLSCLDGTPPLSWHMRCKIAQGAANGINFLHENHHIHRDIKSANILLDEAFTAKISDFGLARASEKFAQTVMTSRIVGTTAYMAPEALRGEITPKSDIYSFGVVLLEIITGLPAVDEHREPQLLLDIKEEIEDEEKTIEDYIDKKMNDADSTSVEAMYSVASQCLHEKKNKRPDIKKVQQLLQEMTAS

IC50 [1] [µM] | IC50 (read-out: IC50) [µM] | SMILES | also measured
0.079 |  | O=c1[nH]c(N2CCOCC2)nc(N[C@@H]2CCCCNC2)c1-c1nc2ccccc2s1 [Example 104, (R)-6-(azepan-3-ylamino)-5-(benzo[d]thiazol-2-yl)-2-morpholinopyrimidin-4(3H)-one.HCl] | 
 | 0.57 | CC1CC(C)CN(c2nc(N[C@@H]3CCCNC3)c(-c3nc4ccccc4s3)c(=O)[nH]2)C1 (stereo partly drawn) [Example 296, 5-(1,3-benzothiazol-2-yl)-2-(3,5-dimethylpiperidin-1-yl)-6-[[(3R)-piperidin-3-yl]amino]-3,4-dihydropyrimidin-4-one trifluoroacetic acid] | 
 | 3 | N[C@H]1C[C@H]1Nc1nc(N2CCOCC2)[nH]c(=O)c1-c1nc2ccccc2s1 [Example 247, 6-[[(1R,2S)-2-amino-cyclopropyl]amino]-5-(1,3-benzothiazol-2-yl)-2-(morpholin-4-yl)-3,4-dihydropyrimidin-4-one] | 
 | 0.012 | O=c1[nH]c(N2CCC3(CCN(c4ncccn4)C3)C2)nc(N[C@@H]2CCCNC2)c1-c1nc2ccccc2s1 (stereo partly drawn) [Example 324, 5-(1,3-benzothiazol-2-yl)-6-[[(3R)-piperidin-3-yl]amino]-2-[7-(pyrimidin-2-yl)-2,7-diazaspiro[4.4]nonan-2-yl]-3,4-dihydropyrimidin-4-one trifluoroacetic acid] | 
 | 2 | CCN1CCCC1CNc1nc(N2CCOCC2)[nH]c(=O)c1-c1nc2ccccc2s1 (centres unmarked) [Example 255, 5-(1,3-benzothiazol-2-yl)-6-[[(1-ethylpyrrolidin-2-yl)methyl]amino]-2-(morpholin-4-yl)-3,4-dihydropyrimidin 4-one] | 
0.59 |  | O=c1[nH]c(NC2CCC2)nc(N[C@@H]2C[C@H](CO)[C@@H](O)[C@H]2O)c1-c1ccccn1 [Example 21, 2-(Cyclobutylamino)-6-((1R,2S,3R,4R)-2,3-dihydroxy-4-(hydroxymethyl)cyclopentylamino)-5-(pyridin-2-yl)pyrimidin-4(3H)-one.HCl] | 
0.02 |  | O=c1[nH]c(NC2CCC2)nc(N[C@@H]2C[C@H](CO)[C@@H](O)[C@H]2O)c1-c1nc2ccccc2s1 [Example 1, 5-(Benzo[d]thiazol-2-yl)-2-(cyclobutylamino)-6-((1R,2S,3R,4R)-2,3-dihydroxy-4-(hydroxymethyl)cyclopentylamino)pyrimidin-4(3H)-one.HCl] | 
 | 0.023 | O=c1[nH]c(N2CC[C@H](O)C2)nc(N[C@@H]2CCCNC2)c1-c1nc2ccccc2s1 [Example 306, 5-(benzo[d]thiazol-2-yl)-2-((S)-3-hydroxy-pyrrolidin-1-yl)-6-((R)-piperidin-3-ylamino)pyrimidin-4(3H)-one bis(2,2,2-trifluoro-acetate)] | 
 | 0.62 | O=c1[nH]c(C2CCN(C3CCCC3)CC2)nc(N[C@@H]2CCCNC2)c1-c1nc2ccccc2s1 [Example 231, 5-(1,3-benzothiazol-2-yl)-2-(1-cyclo-pentylpiperidin-4-yl)-6-[[(3R)-piperidin-3-yl]amino]-3,4-dihydropyrimidin-4-one] | 
0.0065 |  | O=c1[nH]c(N2CC3(CNC3)C2)nc(N[C@@H]2C[C@H](CO)[C@@H](O)[C@H]2O)c1-c1nc2ccccc2s1 [Example 16, 5-(Benzo[d]thiazol-2-yl)-6-((1R,2S,3R,4R)-2,3-dihydroxy-4-(hydroxymethyl)cyclopentylamino)-2-(2,6-diazaspiro[3.3]heptan-2-yl)pyrimidin-4(3H)-one.HCl] | 
0.694 |  | Nc1nc(N[C@@H]2C[C@H](CO)[C@@H](O)[C@H]2O)c(-c2nc3ccccc3s2)c(=O)[nH]1 [Example 2, 2-Amino-5-(benzo[d]thiazol-2-yl)-6-((1R,2S,3R,4R)-2,3-dihydroxy-4-(hydroxymethyl)cyclopentylamino)pyrimidin-4(3H)-one.HCl] | 
2.43 |  | O=C1NCCCC[C@H]1Nc1nc(N2CCOCC2)[nH]c(=O)c1-c1nc2ccccc2s1 [Example 91, (R)-3-(5-(Benzo[d]thiazol-2-yl)-2-morpholino-6-oxo-1,6-dihydropyrimidin-4-ylamino)azepan-2-one.HCl] | 
 | 0.074 | NC(=O)C1CCN(c2nc(N[C@@H]3CCCNC3)c(-c3nc4ccccc4s3)c(=O)[nH]2)CC1 [Example 318, 1-[5-(1,3-benzothiazol-2-yl)-6-oxo-4-[[(3R)-piperidin-3-yl]amino]-1,6-dihydropyrimidin-2-yl]piperidine-4-carboxamide hydrochloride] | 
 | 1.6 | CN(C)CCNc1nc(N2CCOCC2)[nH]c(=O)c1-c1nc2ccccc2s1 [Example 260, 5-(1,3-benzothiazol-2-yl)-6-[[2-(dimethylamino)ethyl]amino]-2-(morpholin-4-yl)-3,4-dihydropyrimidin-4-one] | 
 | 8.3 | O=c1[nH]c(N2CCOCC2)nc(N[C@H]2c3ccccc3C[C@H]2O)c1-c1nc2ccccc2s1 [Example 267, 5-(benzo[d]thiazol-2-yl)-6-((1S,2R)-2-hydroxy-2,3-dihydro-1H-inden-1-ylamino)-2-morpholinopyrimidin-4(3H)-one] | 
 | 0.34 | O=c1[nH]c(C2CCN(CC3CC3)CC2)nc(N[C@@H]2CCCNC2)c1-c1nc2ccccc2s1 [Example 229, 5-(1,3-benzothiazol-2-yl)-2-[1-(cyclo-propylmethyl)piperidin-4-yl]-6-[[(3R)-piperidin-3-yl]amino]-3,4-dihydropyrimidin-4-one] | 

Further lines, the compound ahead of its results:

SMILES | IC50 [1] [µM] | IC50 (read-out: IC50) [µM] | also measured
O=c1[nH]c(N2CCOCC2)nc(N[C@@H]2CCCNC2)c1-c1nc2cc(C(F)(F)F)ccc2s1 [Example 337, 2-(morpholin-4-yl)-6-[[(3R)-piperidin-3-yl]amino]-5-[5-(trifluoromethyl)-1,3-benzothiazol-2-yl]-3,4-dihydropyrimidin-4-one] | 0.07 |  | 
Cc1cnc(C)c(N2CCN(c3nc(N[C@@H]4CCCNC4)c(-c4nc5ccccc5s4)c(=O)[nH]3)CC2)n1 [Example 160, (R)-5-(benzo[d]thiazol-2-yl)-2-(4-(3,6-dimethylpyrazin-2-yl)piperazin-1-yl)-6-(piperidin-3-ylamino)pyrimidin-4(3H)-one] |  |  | IC50 (read-out: IRAK4 IC50): 0.022 µM
NC(=O)c1ccc2sc(-c3c(N[C@@H]4CCCNC4)nc(N4CCOCC4)[nH]c3=O)nc2c1 [Example 347, (R)-2-(2-morpholino-6-oxo-4-(piperidin-3-ylamino)-1,6-dihydropyrimidin-5-yl)benzo[d]thiazole-5-carboxamide] | 0.01 |  | 
O=c1[nH]c(N2CCC(c3ccncc3)C2)nc(N[C@@H]2C[C@H](CO)[C@@H](O)[C@H]2O)c1-c1nc2ccccc2s1 (stereo partly drawn) [Example 76, 5-(benzo[d]thiazol-2-yl)-6-((1R,2S,3R,4R)-2,3-dihydroxy-4-(hydroxymethyl)cyclopentylamino)-2-(3-(pyridin-4-yl)pyrrolidin-1-yl)pyrimidin-4(3H)-one] |  |  | IC50 [2]: 0.0309 µM
CC(=O)NC1CCN(c2nc(N[C@@H]3CCCNC3)c(-c3nc4ccccc4s3)c(=O)[nH]2)CC1 [Example 333, N-[1-[5-(1,3-benzothiazol-2-yl)-6-oxo-4-[[(3R)-piperidin-3-yl]amino]-1,6-dihydropyrimidin-2-yl]piperidin-4-yl]acetamide trifluoroacetic acid] |  | 0.094 | 
O=c1[nH]c(N2CCOCC2)nc(NCCNCCO)c1-c1ccc2ccccc2n1 [Example 273, 6-([2-[(2-hydroxyethyl)amino]ethyl]amino)-2-(morpholin-4-yl)-5-(quinolin-2-yl)-3,4-dihydropyrimidin-4-one] |  | 0.67 | 
O=c1[nH]c(N2CCOCC2)nc(N[C@@H]2CCCNC2)c1-c1nc(-c2ccc(F)cc2)cs1 [Example 98, (R)-5-(4-(4-Fluorophenyl)thiazol-2-yl)-2-morpholino-6-(piperidin-3-ylamino)pyrimidin-4(3H)-one.HCl] | 0.024 |  | 
N#Cc1ccc(-c2c(N[C@@H]3CCCNC3)nc(N3CCOCC3)[nH]c2=O)nc1 [Example 223, (R)-6-(2-morpholino-6-oxo-4-(piperidin-3-ylamino)-1,6-dihydropyrimidin-5-yl)nicotinonitrile] |  | 0.081 | 
N#Cc1cccc(-c2c(N[C@@H]3CCCNC3)nc(N3CCOCC3)[nH]c2=O)n1 [Example 221, (R)-6-(2-morpholino-6-oxo-4-(piperidin-3-ylamino)-1,6-dihydropyrimidin-5-yl)picolinonitrile] |  | 0.167 | 
O=c1[nH]c(N2CCC[C@H]2CF)nc(N[C@@H]2CCCNC2)c1-c1ccc2ccccc2n1 [Example 183, 2-((S)-2-(fluoromethyl)pyrrolidin-1-yl)-6-((R)-piperidin-3-ylamino)-5-(quinolin-2-yl)pyrimidin-4(3H)-one] |  |  | IC50 (read-out: IRAK4 IC50): 0.085 µM
CC(C)(O)C1CCN(c2nc(N[C@@H]3CCCNC3)c(-c3ccc4ccccc4n3)c(=O)[nH]2)C1 (stereo partly drawn) [Example 184, 2-(3-(2-hydroxypropan-2-yl)pyrrolidin-1-yl)-6-((R)-piperidin-3-ylamino)-5-(quinolin-2-yl)pyrimidin-4(3H)-one] |  |  | IC50 (read-out: IRAK4 IC50): 0.042 µM
O=c1[nH]c(N2CCOCC2)nc(N[C@@H]2CCCNC2)c1-c1nc(-c2cccc(C(F)(F)F)c2)cs1 [Example 200] |  |  | IC50 (read-out: IRAK4 IC50): 0.141 µM
O=c1[nH]c(N2CCOCC2)nc(N[C@@H]2CCCNC2)c1-c1nc(-c2ccccn2)cs1 [Example 207] |  |  | IC50 (read-out: IRAK4 IC50): 0.021 µM
CS(=O)(=O)N1CCCN(c2nc(N[C@@H]3C[C@H](CO)[C@@H](O)[C@H]3O)c(-c3nc4ccccc4s3)c(=O)[nH]2)CC1 [Example 77, 5-(benzo[d]thiazol-2-yl)-6-((1R,2S,3R,4R)-2,3-dihydroxy-4-(hydroxymethyl)cyclopentylamino)-2-(4-(methylsulfonyl)-1,4-diazepan-1-yl)pyrimidin-4(3H)-one] |  |  | IC50 [2]: 0.225 µM
O=c1[nH]c(C2CCN(c3ccccn3)CC2)nc(N[C@@H]2CCCNC2)c1-c1nc2ccccc2s1 [Example 242, (R)-5-(benzo[d]thiazol-2-yl)-6-(piperidin-3-ylamino)-2-(1-(pyridin-2-yl)piperidin-4-yl)pyrimidin-4(3H)-one] | 0.18 |  | 
COc1ccccc1C1CCN(c2nc(N[C@@H]3CCCNC3)c(-c3ccc4ccccc4n3)c(=O)[nH]2)CC1 [Example 189, (R)-2-(4-(2-methoxyphenyl)piperidin-1-yl)-6-(piperidin-3-ylamino)-5-(quinolin-2-yl)pyrimidin-4(3H)-one] |  |  | IC50 (read-out: IRAK4 IC50): 0.013 µM
